Reference: paper PMC9387934, “Randomized single oral dose phase 1 study of safety, tolerability, and pharmacokinetics of Iminosugar UV-4 Hydrochloride (UV-4B) in healthy subjects” (PLoS Neglected Tropical Diseases, 2022)
Where “and” joins values, the source holds several entries; their conditions need not be identical. Equal values may be shown once. Read-outs that look alike come from different tables or passages of the source.

How the values were obtained:
[1] = Phase 1a single ascending dose study: UV-4 in pooled urine, urinary recovery and renal clearance; type: in vivo, human; conditions: for dose excreted: human, urine, oral, 48 hours
Description: Serial blood samples were collected at pre-dose (0 hour) and 0.5, 1, 1.5, 2, 2.5, 3, 4, 6, 9, 12, 18, 24, 36, and 48 hours post-dose for assessment of UV-4 concentrations in plasma. Pooled urine samples were collected at pre-dose (-12 to 0 hour) and from 0 to 6, 6 to 12, 12 to 24, and 24 to 48 hours post-dose for assessment of UV-4 concentrations in urine. Plasma and urine concentrations of UV-4 were determined by means of validated, sensitive, and specific high-performance liquid chromatography/tandem mass spectrometric (LC-MS/MS) assays. UV-4 plasma and urine concentrations and PK parameters were listed and summarized by dose, as appropriate. Only the 48 subjects who received active investigational product were included in the PK analysis population.
8.2.3 Specimen Preparation, Handling, and Shipping
8.2.3.1 Instructions for Specimen Preparation, Handling, and Storage
The collected PK blood samples (2 mL) will be placed on ice after blood draw, and within 1 hour centrifuged at room temperature at approximately 3000 revolutions per minute for 15 minutes. Plasma will then be harvested and split into 4 aliquots of approximately 250 μ L and stored frozen at -20°C until shipped.
Urine samples (approximately 10 mL) for determination of UV-4 concentrations in urine will be taken from the total volume provided during each collection period. The total volume of each urine collection will be recorded along with the start/stop time for each urine collection interval.
Analysis of plasma and urine for UV-4 will be performed by the qualified bioanalytical laboratory, Quintiles Bioservices, Inc., Ithaca, New York 14950. Instructions for the proper preparation, handling, storage and shipping of specimens will be provided separately in a study-specific laboratory manual (i.e., Biopacket).
8.2.3.2 Specimen Shipment […]
The following single-dose urine PK parameters will be estimated from the UV-4 urine concentration-time data collected, as appropriate:
Ae Amount of UV-4 excreted in urine unchanged, calculated for each collection interval and cumulatively across intervals fe Fraction of UV-4 excreted in urine unchanged, calculated for each collection interval and cumulatively across intervals […]
Additional UV-4 PK parameters may be calculated at the discretion of the […]
Plasma concentrations and plasma and urine PK parameters will be summarized by treatment using descriptive statistics, as appropriate. Figures for the arithmetic mean (and SD) concentration-time data will be presented for all doses on both a linear and semi-logarithmic scale. Individual concentration-time data will be graphically presented on linear and semi-logarithmic scales. Scatter plots of individual and geometric mean PK parameters versus dose will be presented. Additional graphical presentations of PK data may be added at the discretion of the PK analyst.
Dose proportionality of Cmax, AUC(0-last), and AUC(0-inf) will be assessed graphically and statistically using the power model approach with the logarithm of PK parameters AUC(0-inf) and Cmax as the dependent variables and the logarithm of the dose as the independent variable: ([AUC(0-inf), AUC(0-last), or Cmax]=α *doseβ).
11.4.7 Deviation from Original Analysis Plan
Deviations from the formal statistical analysis plan will be noted in the final Clinical Study

[2] = BID or TID dosing after 14 days in mouse or dog; ref Investigator’s Brochure (IB); cited from earlier work
[3] = set-up: method as in Investigator’s Brochure (IB); conditions: dogs, ref Investigator’s Brochure (IB), cited from earlier work

For COCCCCCCCCCN1C[C@H](O)[C@@H](O)[C@H](O)[C@H]1CO [UV4], the “CONCENTRATION UV4 in human urine” value ([1]; Cohort 1, nominal day 1, nominal hour 0 (pre-dose), individual subjects) was “<LLOQ (0.500) ng/mL”, the “CONCENTRATION UV4 in human urine” value ([1]; Cohort 1, nominal day 1, nominal hour 6, individual subjects) was 650 ng/mL and 868 ng/mL and the “CONCENTRATION UV4 in human urine” value ([1]; Cohort 1, nominal day 1, nominal hour 12, individual subjects) was 414 ng/mL and 455 ng/mL. The “CONCENTRATION UV4 in human urine” value ([1]; Cohort 1, nominal day 2, nominal hour 24, individual subjects) was 99.1 ng/mL and 451 ng/mL, the “CONCENTRATION UV4 in human urine” value ([1]; Cohort 1, nominal day 2, nominal hour 48, individual subjects) was 74.6 ng/mL and 166 ng/mL and the “CONCENTRATION UV4 in human urine” value ([1]; Cohort 3, nominal day 1, nominal hour 0 (pre-dose), individual subjects) was “<LLOQ (0.500) ng/mL”. For the same compound, the “CONCENTRATION UV4 in human urine” value ([1]; Cohort 3, nominal day 1, nominal hour 6, individual subjects) was 6240 ng/mL and 8650 ng/mL and 11700 ng/mL, the “CONCENTRATION UV4 in human urine” value ([1]; Cohort 3, nominal day 1, nominal hour 12, individual subjects) was 8820 ng/mL and 2090 ng/mL and 1200 ng/mL and 11200 ng/mL and the “CONCENTRATION UV4 in human urine” value ([1]; Cohort 3, nominal day 2, nominal hour 24, individual subjects) was 3300 ng/mL and 754 ng/mL and 614 ng/mL and 3690 ng/mL. The “CONCENTRATION UV4 in human urine” value ([1]; Cohort 3, nominal day 2, nominal hour 48, individual subjects) was 721 ng/mL and 248 ng/mL and 147 ng/mL and 900 ng/mL, the “CONCENTRATION UV4 in human urine” value ([1]; Cohort 4, nominal day 1, nominal hour 0 (pre-dose), individual subjects) was “<LLOQ (0.500) ng/mL and 1.11 ng/mL” and the “CONCENTRATION UV4 in human urine” value ([1]; Cohort 4, nominal day 1, nominal hour 6, individual subjects) was 46400 ng/mL and 48400 ng/mL and 30900 ng/mL and 140000 ng/mL and 54900 ng/mL and 36000 ng/mL. For the same compound, the “CONCENTRATION UV4 in human urine” value ([1]; Cohort 4, nominal day 1, nominal hour 12, individual subjects) was 3970 ng/mL and 24500 ng/mL and 26000 ng/mL and 15000 ng/mL and 33100 ng/mL and 11200 ng/mL, the “CONCENTRATION UV4 in human urine” value ([1]; Cohort 4, nominal day 2, nominal hour 24, individual subjects) was 1230 ng/mL and 7560 ng/mL and 8120 ng/mL and 8370 ng/mL and 4550 ng/mL and 3920 ng/mL and the “CONCENTRATION UV4 in human urine” value ([1]; Cohort 4, nominal day 2, nominal hour 48, individual subjects) was 367 ng/mL and 2090 ng/mL and 1260 ng/mL and 1810 ng/mL and 473 ng/mL and 648 ng/mL. The “CONCENTRATION UV4 in human urine” value ([1]; Cohort 5, nominal day 1, nominal hour 0 (pre-dose), individual subjects) was “<LLOQ (0.500) ng/mL”, the “CONCENTRATION UV4 in human urine” value ([1]; Cohort 5, nominal day 1, nominal hour 6, individual subjects) was 122000 ng/mL and 104000 ng/mL and 75800 ng/mL and 62800 ng/mL and 65800 ng/mL and 68800 ng/mL and the “CONCENTRATION UV4 in human urine” value ([1]; Cohort 5, nominal day 1, nominal hour 12, individual subjects) was 17100 ng/mL and 26900 ng/mL and 16200 ng/mL and 22000 ng/mL and 21200 ng/mL and 18200 ng/mL. For the same compound, the “CONCENTRATION UV4 in human urine” value ([1]; Cohort 5, nominal day 2, nominal hour 24, individual subjects) was 5200 ng/mL and 6760 ng/mL and 4560 ng/mL and 7550 ng/mL and 11900 ng/mL and 7200 ng/mL, the “CONCENTRATION UV4 in human urine” value ([1]; Cohort 5, nominal day 2, nominal hour 48, individual subjects) was 706 ng/mL and 961 ng/mL and 775 ng/mL and 2920 ng/mL and 2030 ng/mL and 1860 ng/mL and the “CONCENTRATION UV4 in human urine” value ([1]; Cohort 6, nominal day 1, nominal hour 0 (pre-dose), individual subjects) was “<LLOQ (0.500) ng/mL”. The “CONCENTRATION UV4 in human urine” value ([1]; Cohort 6, nominal day 1, nominal hour 6, individual subjects) was 357000 ng/mL and 97600 ng/mL and 326000 ng/mL and 75900 ng/mL and 182000 ng/mL and 126000 ng/mL, the “CONCENTRATION UV4 in human urine” value ([1]; Cohort 6, nominal day 1, nominal hour 12, individual subjects) was 35000 ng/mL and 12100 ng/mL and 104000 ng/mL and 38000 ng/mL and 15200 ng/mL and 19200 ng/mL and the “CONCENTRATION UV4 in human urine” value ([1]; Cohort 6, nominal day 2, nominal hour 24, individual subjects) was 6830 ng/mL and 2550 ng/mL and 4060 ng/mL and 7760 ng/mL and 6220 ng/mL and 12700 ng/mL. The “CONCENTRATION UV4 in human urine” value ([1]; Cohort 6, nominal day 2, nominal hour 48, individual subjects) was 1470 ng/mL and 442 ng/mL and 1480 ng/mL and 1390 ng/mL and 830 ng/mL.

In the case of COCCCCCCCCCN1C[C@H](O)[C@@H](O)[C@H](O)[C@H]1CO [UV-4, N-(9’-methoxynonyl)-1-deoxynojirimycin], the “Time over which UV-4 was quantifiable in pooled urine” value ([1]; all doses (3 to 1000 mg), entire collection interval) is reported as 48 h, the dose excreted ([1]; 3 to 1000 mg dose range, read-out: UV-4 recovery in urine, range of dose group means) is reported as 39.8 to 55.1% and the dose excreted ([1]; 10 to 1000 mg dose range, read-out: Urinary recovery, range of dose group means) is reported as 46.4 to 55.1%. The “Renal clearance as share of UV-4 apparent systemic clearance” value ([1]; in vivo) was at least 50%, the Accumulation [2] was “did not accumulate” and the “Finding at the highest dose” value ([3]; 150 mg/kg/dose TID for seven days) was “severe GI effects”. The “Finding at 10 mg/kg/dose TID” value ([3]; 10 mg/kg) was “diarrhea was still apparent although not adverse”.
